Results on 73 compounds are retold here after PubChem BioAssay AID179 (DTP/NCI, 2004).

pEC50, pIC50: −log10 of the molar value. Calls of active or inactive are those of the source.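 The calls were made as follows: active = compounds giving half or more protection of infected cells from virus-caused growth loss, again on retest; inactive = the rest.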 Some results are limits rather than exact numbers.

This test has as its system CEM cells HIV-1 protection, formazan growth assay. Kind of test: NCI AIDS Antiviral Assay. The note with it: for pIC50: measured here: growth of uninfected CEM cells. An outline of the steps: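 Protection of CEM cells against HIV-1 measured as cell growth via soluble formazan read-out, with five concentrations tested on both infected and uninfected cells; failure to protect may reflect toxicity.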

Compound `[N-]=[N+]=NC1CC(n2ccc(=O)[nH]c2=O)OC1CO` (stereo not given) had a pEC50 of 5.54 and a pIC50 of 4.70.

In the case of `Cc1[nH]nc2c1NC(=O)OC(C)C2` (stereo not given), the pEC50 was 3.88 and the pIC50 was 3.31.

Consider `COc1nc2c(c(=O)[nH]1)N=C(c1ccccc1)CC(c1ccccc1)N2` (stereo not given), for which the pEC50 is < 3.70 and the pIC50 is < 3.70.

Turning to `CC(=O)NC(CCCN)C(=O)NCc1ccccc1` (stereo not given), the pEC50 was < 3.02 and the pIC50 is < 3.02.

For `COC1(OC)CC(CO)(CNc2cc(Cl)nc(N)n2)C1`, the pEC50 was < 3.70 and the pIC50 was < 3.70.

For `C=CCn1c(C23CC4CC(CC(C4)C2)C3)n[nH]c1=S`, the pEC50 was < 3.00 and the pIC50 is 4.51.

As to `COc1ccc(-c2cc(=O)c3c(OC)c(OC)c(OC)c(OC)c3o2)c(OC)c1`, the pEC50 was < 3.70 and the pIC50 is 4.69.

`COC(=O)c1ccc(/C=C/C2=CC(=O)C=CC2=O)cc1`: the pEC50 is < 3.70 and the pIC50 is 5.68.

On to `CCOc1ccc(N=Nc2ccc3oc(=O)c(/C(C)=N\NC(=O)CC(=O)Nc4ccc(Cl)cc4)cc3c2)cc1`, for which the pEC50 is < 4.88 and the pIC50 is < 4.88.

For the compound `Cc1ccc(N(C(=O)CC(=O)NN)C(=O)c2ccccc2Cl)cc1`, the pEC50 was < 3.57 and the pIC50 was < 3.57.

Regarding `O=c1c2ccccc2n2n1CC(O)C2` (stereo not given), the outcome was inactive.

On to `COc1ccc(/C=C(\C#N)C(=O)c2ccccc2)cc1`, for which the pEC50 was < 4.01 and the pIC50 is 4.25.

Turning to `O=C1CCC2CCC(=O)N12`, the pEC50 was < 2.75 and the pIC50 was < 2.75.

On to `O=C(O)c1cc(C(c2ccc(O)c(C(=O)O)c2)c2ccc(O)c(C(=O)O)c2)ccc1O`, for which the pEC50 was < 3.82 and the pIC50 is 4.54.

Regarding `O=C1/C(=C/c2cccc(F)c2)CCc2ccccc21`, the pEC50 was < 4.83 and the pIC50 is < 4.83.

For `c1ccc2c(c1)[nH]c1c2nc2ccccn21`, the pEC50 was < 2.99, the result was inactive and the pIC50 is < 2.99.

As for `Cc1cc([C@H](C#N)c2nc3ccccc3[nH]2)nc(Cl)n1`, the pEC50 is < 3.70 and the pIC50 was 4.65.

In the case of `COc1cc2c3c(c1)ncn3C(=O)CCS2`, the pEC50 is < 3.70 and the pIC50 is < 3.70.

`CC(=O)[O-].COc1cccc(/C=N/[N-]C(=O)c2ccncc2)c1.[OH3+].[OH3+].[OH3+].[Zn+2]`: the pEC50 is < 3.70 and the pIC50 was 5.41.

`COC(=O)C(=O)C(C(=O)C(=O)Nc1cccc(C(C)=O)c1)c1nc2ccc([N+](=O)[O-])cc2[nH]c1=O` (stereo not given): the pEC50 is < 4.19 and the pIC50 is < 4.19.

As for `O=C(Nc1cccc(C(F)(F)F)c1)c1cc(Br)cc(Br)c1O`, the pEC50 is < 3.70 and the pIC50 is 5.82.

As for `COC(=O)C1(CCCCCBr)CCCCCCCCCCC1=O` (stereo not given), the pEC50 was < 3.70 and the pIC50 is 4.45.

With `C(=N\NC1=NCCN1)/c1ccc(-c2cn3cc(/C=N/NC4=NCCN4)ccc3n2)cc1`, the pEC50 was < 4.27 and the pIC50 was 5.43.

With `COc1ccc(/C=C2/CCCC/C2=N/O)cc1`, the pEC50 is < 3.53 and the pIC50 is 3.74.

Regarding `O=C1c2c(O)cc(O)cc2C(C2OC(CO)C(O)C(O)C2O)c2cc(CO)cc(O)c21` (stereo not given), the pEC50 was < 3.70 and the pIC50 is < 3.70.

Regarding `Cc1ccc(NC2=NCCS2)c(C)c1`, the pEC50 was < 3.70 and the pIC50 is < 3.70.

In the case of `COc1ccc(C(=O)CC(c2ccc3c(c2)OCO3)c2c(O)c3ccccc3oc2=O)cc1OC` (stereo not given), the pEC50 was < 3.70 and the pIC50 was 4.05.

Regarding `CCCCN(C)C(=O)C1=C(C)NC(C)=C(C(=O)N(C)CCCC)C1`, the pEC50 is < 3.70 and the pIC50 is 3.99.

As for `COc1ccc(C2SC(=S)N(Cc3ccc(Cl)cc3)N2Cc2ccc(Cl)cc2)cc1` (stereo not given), the pEC50 is < 3.70 and the pIC50 was 4.46.

As for `Nc1ccc(C(=O)NN2C(=O)C(Cl)C2c2ccc([N+](=O)[O-])cc2)cc1` (stereo not given), the pEC50 was < 3.70 and the pIC50 was 5.39.

`O=C1CC(=O)N2C(=O)CC(=O)N12`: the pEC50 is < 3.27 and the pIC50 was < 3.27.

For `O=C(O)c1ccc(/C=N\N(CCO)C2=NCCN2)cc1`, the pEC50 was < 3.70 and the pIC50 was < 3.70.

As for `COc1ccc(N=NC(=O)NC(CC(C)C)C(=O)NC(CC(C)C)C(=O)O)cc1` (stereo not given), the pEC50 was < 3.70 and the pIC50 was 5.14.

Regarding `Cn1c2ccccc2n2c3ncccc3c(=S)c(C#N)c12`, the pEC50 was < 3.70 and the pIC50 is < 3.70.

For the compound `CC1CC(c2ccc(Cl)c(Cl)c2)=Nc2ccccc2S1` (stereo not given), the pEC50 was < 5.21 and the pIC50 was < 5.21.

For `COc1ccc2nc3ccc(OC)cc3c(S(=O)Cc3ccccc3)c2c1` (stereo not given), the pEC50 is < 3.70 and the pIC50 was 5.91.

`Cc1ccc(/C=C2\CCCC(CN3CCCCC3)C2=O)cc1` (stereo not given): the pEC50 is < 3.70 and the pIC50 is 6.14.

As for `COc1ccc(C)cc1S(=O)(=O)c1c(Cl)cccc1[N+](=O)[O-]`, the pEC50 was < 3.70 and the pIC50 is < 3.70.

With `COC(=O)[C@H]1C(=CBr)[C@@H]1C(=O)OC.[C-]#[O+].[C-]#[O+].[C-]#[O+].[C-]#[O+].[Fe]`, the pEC50 is < 3.70 and the pIC50 is < 3.70.

In the case of `Cc1c(C(=O)CSc2nc3ccccc3c(=O)n2-c2ccccc2)c(=O)n(-c2ccccc2)n1C`, the pEC50 is < 5.25 and the pIC50 was < 5.25.

`COC(=O)C1=C(C(=O)OC)SC(=C(N=Nc2ccccc2)c2ccccc2)S1`: the outcome was inactive.

As to `C1#CCSCC#CCSC1`, the pEC50 was < 4.37 and the pIC50 was < 4.37.

Regarding `CC(=O)Nc1ccc(S(=O)(=O)N/N=C/CN2C(=O)c3ccccc3C2=O)cc1`, the pEC50 is 4.57 and the pIC50 is 4.05.

Consider `CC(C)N1CCCOC(c2ccc([N+](=O)[O-])cc2)O1` (stereo not given), for which the pEC50 was < 3.70 and the pIC50 is 3.95.

As for `CC1(C)C2CCC1(CS(=O)O)C(=O)C2.[Ag]` (stereo not given), the pEC50 was < 3.40 and the pIC50 was 5.10.

As to `CC(=O)OI1NC(=O)c2ccccc21`, the pEC50 is 4.44 and the pIC50 was 3.90.

With `Clc1ccc(CSc2ccc3nncc(SCc4ccc(Cl)cc4Cl)c3c2)c(Cl)c1`, the pEC50 was < 4.53 and the pIC50 is < 4.53.

On to `CC1(C)C(=O)c2ccccc2OC1N1CCN(C2Oc3ccccc3C(=O)C2(C)C)CC1` (stereo not given), for which the result was inactive.

As for `O=C1CC2(c3ccccc3)CCCCC2=NN1` (stereo not given), the pEC50 is < 3.70 and the pIC50 is < 3.70.

In the case of `OCC(O)C(O)C(O)C1SC(c2ccccc2)=NN1c1ccccc1` (stereo not given), the outcome was inactive.

As to `CC1CC(C)(C)S(=O)(=O)O1` (stereo not given), the pEC50 was < 3.70 and the pIC50 was < 3.70.

Take `S=C1NC=CC(S)N1` (stereo not given): the pEC50 is < 3.70 and the pIC50 is < 3.70.

For `CC(C)(C)C[PH+](CC[PH+](CC(C)(C)C)CC(C)(C)C)CC(C)(C)C.[C-]#[O+].[C-]#[O+].[C-]#[O+].[C-]#[O+].[Mo]`, the pEC50 was < 5.46 and the pIC50 is < 5.46.

As for `COC1OC(CO)C(NC2=N[C@@H]3[C@H](O2)[C@@H](O)[C@H](O)[C@]3(O)CO)C(O)C1O` (stereo not given in full), the pEC50 is < 4.30 and the pIC50 was < 4.30.

In the case of `CCc1[nH]nc(-c2ccc(OC)cc2)c1-c1ccccc1O`, the pEC50 was < 3.70 and the pIC50 is 4.68.

Consider `CCOC(=O)C(=O)Nc1ccccc1C(F)(F)F`, for which the pEC50 was < 3.44 and the pIC50 is < 3.44.

`CC(=O)OCC1OC(n2c(=S)n(-c3ccccc3)c(=O)c3cc(Br)cc(Br)c32)C(OC(C)=O)C(OC(C)=O)C1OC(C)=O` (stereo not given): the pEC50 is < 4.74 and the pIC50 was < 4.74.

Take `CCSc1[nH]c(NC(=NC(C)C)NC(=O)c2ccccc2)c(C(N)=O)c1C(N)=O`: the result was inactive.

On to `Cc1nc2cc(C)[nH]c(=O)n2n1`, for which the pEC50 is < 2.82 and the pIC50 was < 2.82.

In the case of `NC(=O)CNC(=O)c1ccc([As](=O)(O)O)cc1`, the pEC50 is < 3.70 and the pIC50 is < 3.70.

With `CN(C)CCC(=O)C(=Cc1ccc(O)cc1)C(=O)CCN(C)C`, the pEC50 was < 3.19 and the pIC50 is 4.36.

As for `CN1CCN(c2ccc3c(c2)NCC(=O)N3)CC1`, the pEC50 was < 3.70 and the pIC50 is 3.93.

Turning to `c1ccc2c(c1)cc1n2CCc2c-1[nH]c1ccccc21`, the pEC50 was < 3.70 and the pIC50 is < 3.70.

For `CC(=O)c1c(C)nc(SSc2nc(C)c(C(C)=O)c(-c3ccc(Cl)cc3)c2C#N)c(C#N)c1-c1ccc(Cl)cc1`, the pEC50 is < 3.70 and the pIC50 was < 3.70.

Turning to `CC1(C)C(=O)C(C)(C)C12SSC1(S2)C(C)(C)C(=O)C1(C)C`, the pEC50 was < 3.70 and the pIC50 is 4.09.

With `C1CCC(N=C(NC2CCCCC2)N2CCOCC2)CC1`, the pEC50 is < 3.70 and the negative-log IC50 (pIC50) is 3.87.

For the compound `N#Cc1cccc(C=C2C(=O)c3ccccc3C2=O)c1`, the pEC50 was < 4.44 and the pIC50 was < 4.44.

In the case of `NC(N)=C1CN(C2CCCCC2)C(=O)NC1=O`, the pEC50 is < 2.98 and the pIC50 is 3.10.

`O=c1nc2c(c(-c3ccc(F)cc3)[nH]1)COC/C2=C\c1ccc(F)cc1`: the outcome was inactive.

With `Cc1ccc(S(=O)(=O)N2CCCSCCN(S(=O)(=O)c3ccc(C)cc3)CCCSCC2)cc1`, the pEC50 is < 4.46 and the pIC50 was < 4.46.

As to `CCc1cc2c(c3[nH]ccc13)[C@@H](C)C[C@H]2C`, the result was inactive.

For the compound `COc1cccc(CN2CCCN(/N=C/c3c4c(O)c5c(O)c(C)c6c(c5c3O)C(=O)C(C)(O/C=C/C(OC)C(C)C(OC(C)=O)C(C)C(O)C(C)C(O)C(C)/C=C/C=C(/C)C(=O)N4)O6)CC2)c1` (stereo not given), the pEC50 was < 3.70 and the pIC50 was 5.30.

On to `Cc1nc2c(cc1C(=O)NN)c(=O)n(C)c(=O)n2C`, for which the pEC50 was < 3.70 and the pIC50 is < 3.70.

As a reminder, the pEC50 is the EC50 on a negative log10 scale, so that one unit is a factor of ten. One may read the pIC50 as the negative decadic logarithm of the IC50, by convention in mol/L. Low readings indicate a high IC50, high ones a low IC50.
